Data on 15 compounds can be found in US5245034A, “Compound having vessel smooth muscle relaxation activity” (Hidaka; Kiroyoshi, priority 1988, dated 1993).

This assay deals with superior mesenteric artery (contracted by potassium chloride). The experiment in a line: Vessel Smooth Muscle Relaxation Action (V.R.). It is filed as cell-based, rabbit. Particulars: Oryctolagus cuniculus; concentration relaxing KCl-contracted strain to 50%; cumulative administration; read-out: V.R. (ED50). An excerpt:
The specimen was suspended by loading a strain in Krebs-Henseleit solution through which an oxygen gas containing 5% carbon dioxide was bubbled. The specimen was contracted by adding potassium chloride to maintain a predetermined strain. Thereafter, a test compound was cumulatively administrated.

Structures are written as SMILES.

As to `Cc1ccc(COC2CCN(CC(Cc3ccc(OS(=O)(=O)c4cccc5cnccc45)cc3)NS(=O)(=O)c3cccc4cnccc34)CC2)cc1` (stereo not drawn) [Example 84], the EC50 was determined as 43 µM. In the case of `CN(C(Cc1ccc(O)cc1)CN1CCC(NCc2ccccc2)CC1)S(=O)(=O)c1cccc2cnccc12` (stereo not drawn) [Example 98, N-{2-[4-(N-benzylamino)piperidino]-1-(p-hydroxybenzyl)ethyl}-N-methyl-5-isoquinolinesulfonamide], the EC50 stood at 22 µM. As to `CN(C(Cc1ccc(O)cc1)CN1CCC(O)CC1)S(=O)(=O)c1cccc2cnccc12` (stereo not drawn) [Example 100], the EC50 came out at 95 µM. With `COc1ccc(CC(CN2CCC(O)CC2)N(C)S(=O)(=O)c2cccc3cnccc23)cc1` (stereo not drawn) [Example 101] the figure was 29 µM; with `CC(=O)Oc1ccc(CC(CN2CCC(OC(C)=O)CC2)N(C)S(=O)(=O)c2cccc3cnccc23)cc1` (stereo not drawn) [Example 102, N-[1-(P-Acetoxybenzyl)-2-(4-Acetoxypiperidino)Ethyl]-N-Methyl-5-Isoquinolinesulfonamide], 24 µM; with `O=C(OCc1ccccc1)N1CCCN(CC(Cc2ccc(O)cc2)NS(=O)(=O)c2cccc3cnccc23)CC1` (stereo not drawn) [Example 116, N-{2-(4-benzyloxycarbonylhomopiperazinyl)-1-(p-hydroxybenzyl)ethyl}-5-isoquinolinesulfonamide], 1.5 µM. In the case of `COc1ccc(CC(NS(=O)(=O)c2cccc3cnccc23)C(=O)N2CCCN(C(=O)Cc3ccccc3)CC2)cc1` (stereo not drawn) [Example 120, 1-[N-(5-Isoquinolinesulfonyl)-O-Methyl]Tyrosyl-4-Phenylacetylhomopiperazine], the EC50 was found to be 19 ± 3 µM. With `O=C([C@H](Cc1ccc(O)cc1)NS(=O)(=O)c1cccc2cnccc12)N1CCCN(CCCc2ccccc2)CC1` [Example 124, 1-[N-(5-Isoquinolinesulfonyl)Tyrosyl]-4-(3-Phenylpropyl)Homopiperazine] the figure was 11 µM; with `COc1ccc(N2CCN(CC(Cc3ccc(N4C(=O)c5ccccc5C4=O)cc3)NS(=O)(=O)c3cccc4cnccc34)CC2)cc1` (stereo not drawn) [Example 125, N-{2-[4-(P-Methoxyphenyl)Piperazinyl]-1-(P-Phthalimidebenzyl)ethyl}-5-isoquinolinesulfonamide], 9.2 µM. Take `COc1ccc(N2CCN(CC(Cc3ccc(N)cc3)N(C)S(=O)(=O)c3cccc4cnccc34)CC2)cc1` (stereo not drawn) [Example 128, N-{1-(p-aminobenzyl)-2-[4-(p-methoxyphenyl)piperazinyl]ethyl}-N-methyl-5-isoquinolinesulfonamide]: the EC50 was found to be 1.8 µM. In the case of `COc1ccc(N2CCN(CC(Cc3ccc(NS(=O)(=O)c4cccc5cnccc45)cc3)N(C)S(=O)(=O)c3cccc4cnccc34)CC2)cc1` (stereo not drawn) [Example 129, N-{1-[p-(5-isoquinolinesulfonylaminobenzyl)]-2-[4-(p-methoxyphenyl)piperazinyl]ethyl}-N-methyl-5-isoquinolinesulfonamide], the EC50 was found to be 0.82 µM. Turning to `COc1ccc(N2CCN(CC(Cc3ccc(NS(=O)(=O)c4cccc5cnccc45)cc3)NS(=O)(=O)c3cccc4cnccc34)CC2)cc1` (stereo not drawn) [Example 130, N-{1-[p-(5-isoquinolinesulfonylaminobenzyl)]-2-[4-(p-methoxyphenyl]piperazinyl]ethyl}-5-isoquinolinesulfonamide], the EC50 came to 13 µM. Regarding `COc1ccc(N2CCN(CC(Cc3ccc(N(C)S(=O)(=O)c4cccc5cnccc45)cc3)N(C)S(=O)(=O)c3cccc4cnccc34)CC2)cc1` (stereo not drawn) [Example 131, N-[[1-{P-[N-5-Isoquinolinesulfonyl)-N-(Methylamino)Benzyl]}-2-[4-(P-Methoxyphenylpiperazinyl]Ethyl]]-N-Methyl-5-Isoquinolinesulfonamide], the EC50 worked out at 1.5 µM. On to `CN(c1ccccc1NCC=Cc1cccnc1)S(=O)(=O)c1cccc2cnccc12` [Example 146, N-{2-[3-(3-pyridyl)allylamino)phenyl}-N-methyl-5-isoquinolinesulfonamide], for which the EC50 is 2.8 µM. Consider `CC(C=Cc1ccc2c(c1)OCO2)NCCNS(=O)(=O)c1cccc2cnccc12` (stereo not drawn) [Example 161], for which the EC50 turned out to be 4.7 µM.
